Patent publication US12371402B2, “Mitochondrial activity inhibitors targeting tumoral metabolism” (CENTRE LEON BERARD, priority 2018, dated 2025)

Key:
[1] = system: Karpas-422 DLBCL lymphoma; assay: Apoptosis by Annexin V/PI flow cytometry, Karpas-422; assay type: cell-based, human; conditions: Karpas-422, 10 μM, 48 hours
Procedure: (§1) All the cells were routinely maintained in RPMI 1640 culture medium 11 mM glucose supplemented with 10% FCS. The day of experiment, cells (80 to 100.10^3/well) in exponential phase of growth were seeded in 96 wells plates, in 100 μl of culture medium final volume, in absence (not treated: NT) or presence of indicated compounds concentrations. Stocks of compounds were 10 mM in DMSO, and final DMSO concentration in assay was 0.1%. The control not treated (NT) assays contains 0.1% DMSO. After 48h of incubation at 37° C., cells were immediately analyzed by flow cytometry. Apoptosis was detected using Annexin V/PI staining protocol, according to manufacturer indications.
(§2) Compounds 2 to 4 (named respectively C2 to C4 in the figures) were tested and compared with IACS-010759 (IACS), an OXPHOS inhibitor in clinical phase 1 trial which is assessed in parallel (Molina et al., 2018).

[2] = system: panel of hematological cell lines; assay: Live cell number by flow cytometry, panel of hematological cell lines; assay type: cell-based, human; conditions: 10 μM, 48 hours
Procedure: as §1, §2

[3] = system: INS-1 cells; assay: WST-1 cell viability test, pancreatic neuroendocrine tumor cell line INS-1; assay type: cell-based
Procedure: (§3) Drugs (compound 1 and Metformin) were initially diluted in DMSO (=vehicle dimethylsulfoxide). Appropriate dilutions of these stocks were performed in DMSO and finally in culture medium; 15 μl of each dilution was distributed in 4 wells (replicates) according to the plate schedule to obtain final drug concentrations (0.1 μM to 1 mM for metformin and 1 μM to 200 μM for compound 1) after cells were added. Control wells with vehicle at the appropriate dilution only were included. Lymphoma cells in exponential phase of growth were counted and assessed for more than 95% viability by trypan blue coloration. […] Adherent cells (MEFs cells and INS-1 cells were seeded the day before to obtain 80% confluence the day of experiment. Culture medium was renewed with 35 μL fresh medium and 15 μl of appropriated drug dilution was then added. These plates were incubated 24 hours at 37° C./5% CO2. Then addition of 5 μl of WST-1 cell proliferation reagent (Roche, #11644807001) was performed, before incubation 2-4 hours at 37° C. and lecture of the absorbance following the manufacturer instructions. WST-1 assays are non-radioactive, rapid and more sensitive than MTT, XTT, or MTS-based assays. The WST-1 assay is based on the cleavage of the tetrazolium salt WST-1 to formazan by cellular mitochondrial dehydrogenases. […] Cell viability was assessed comparing wells containing drugs to those with vehicle only. […]

[4] = system: Follicular Lymphoma (RL model) xenograft; assay: CDX xenograft tumor volume, RL model; assay type: in vivo, female SCID mice; conditions: 50 mg/kg intraperitoneal five times a week, versus DMSO control
Text: (§4) CDX (cell derived xenografts) models of human NHL were used: Follicular Lymphoma (RL model), Diffuse Large B Cell Lymphoma (SUDHL-4 model). Cells were subcutaneously implanted; since the tumor growth was not homogeneous, it was decided to implant surgically 2×2 mm pieces from these initial tumours. Animals were female SCID mice.
(§5) Mice were randomized when the tumors reach a mean volume of 100 mm^3 for the 2 groups (control and compound 1). […] The endpoints are defined by animal ethics as a tumor diameter of >18 mm, significant weight loss or alteration of animal well-being. In order to assess the effectiveness of the compound 1 on tumorigenesis, tumor volume was measured three times a week. The sizes of the primary tumors were measured using calipers and the tumor volume (TV) was extrapolated to a sphere using the formula TV=4/3 π×r3, by calculating the mean radius from the two measurements. The median and standard deviation were also calculated for each group. Median is preferred to mean in order to exclude the extreme values.
(§6) COMPOUND 1 was administered by intraperitoneal injection five times a week, at dose 50 mg/kg. Control DMSO was administered also by intraperitoneal injection five times a week. […]
(§7) Unless specified, the non-parametric Mann-Whitney test was performed on the tumor volume values (mm^3) measured on the day of the first euthanasia.

[5] = system: RL follicular lymphoma cells; assay: WST-1 cell viability test, RL follicular lymphoma cells; assay type: cell-based; conditions: Homo sapiens, 24 hours incubation
Text: (§8) RL cells (from ATCC, CRL-2261), SUDHL-4 cells (from ATCC, CRL-2957), GRANTA cells, BJAB Burkitt lymphoma cells, SUDHL4 DLBCL lymphoma cells, REC-1 Mantle lymphoma cells, RL follicular lymphoma cells, MTA NK/T lymphoma cells, HUT-78 Sesary T lymphoma cells, Karpas-384 gamma/delta PTCL lymphoma cells and SR-786 ALCL/Alk+ lymphoma Wild type/rescue MEF_LKB1+/+(mouse embryonic fibroblasts) cells were taken as a control; and mutated MEF_LKB−/− cells in which LKB1 gene was invalidated (Bardeesy et al., 2002). All cells were grown in flasks in RPMI 1640 Glutamax medium 11 mM Glucose supplemented with 10% fetal bovine serum and 1% penicillin-streptomycin medium supplemented with 10% fetal bovine serum and 1% penicillin-streptomycin. Cells were maintained at a constant temperature of 37° C. in a humidified atmosphere containing 5% CO2/95% air.
(§9) Drugs (compound 1 and Metformin) were initially diluted in DMSO (=vehicle dimethylsulfoxide). […] Lymphoma cells in exponential phase of growth were counted and assessed for more than 95% viability by trypan blue coloration. […] The formazan dye produced by viable cells can be quantified by measuring the absorbance at 440 nm. Cell viability was assessed comparing wells containing drugs to those with vehicle only. […]

[6] = system: Karpas-384 gamma/delta PTCL lymphoma cells; assay: WST-1 cell viability test, Karpas-384 lymphoma cells; assay type: cell-based; conditions: Homo sapiens, 24 hours incubation
Text: as §8, §9

[7] = system: Human B lymphoma and T lymphoma cell lines; assay: WST-1 cell viability test, panel of human B and T lymphoma cell lines; assay type: cell-based
Text: as §8, §9

[8] = system: mitochondrial ECT complex1; assay: Oxygen consumption in permeabilized tumoral cells (RL, SUDHL4, GRANTA); assay type: cell-based, human
Procedure: Human Cell lines: RL cells (from ATCC, CRL-2261) and SU-DHL-4 cells (from ATCC, CRL-2957) were grown in flasks in RPMI 1640—Glutamax medium supplemented with 10% fetal bovine serum and 1% penicillin-streptomycin. GRANTA cells were grown in flasks in DMEM-Glutamax medium supplemented with 10% fetal bovine serum and 1% penicillin-streptomycin. Cells were maintained at a constant temperature of 37° C. in a humidified atmosphere containing 5% CO2/95% air.
(§10) Oxygen consumption was measured in a thermostatically controlled oxigraph vessel equipped with a Clarck oxygen electrode at 37° C. (Strathkelvin MS200A system).
(§11) Experiment was started by the addition of 100 μg/ml digitonine and either 5 mM Glutamate plus 2.5 mM Malate or 5 mM Succinate plus 1 μM rotenone, followed by the addition of 500 μM ADP (state 3) then 2 μg/ml Oligomycin (state 4).
Cell lines: RL, SU-DHL-4 or GRANTA cells were centrifuged and counted. A cell suspension (100 million of trypan blue negative cells per ml) was prepared in respiration buffer. 10 million cells were added in the oxigraph chamber containing respiration buffer. The final volume was 1 ml. compound 1 (0.5 to 20 μM) was added to permeabilized cells after the addition of ADP or oligomycin.
(§12) All measures were realized 2 min after drugs addition.

[9] = system: mitochondrial ECT complex1; assay: Oxygen consumption in permeabilized fresh hepatocytes; assay type: cell-based; conditions: permeabilized rat liver hepatocytes, state 3, 2 min after addition
Procedure: Rat liver hepatocytes were isolated from overnight-starved animals by enzymatic digestion with collagenase according to the method of Berry and Friend modified by Groen.
Primary hepatocytes were directly used after isolation (for metabolic analyses). Cells were maintained at a constant temperature of 37° C. in a humidified atmosphere containing 5% CO2/95% air. The medium was removed after 4 h (time necessary for cell attachment) and replaced by fresh medium.
as §10, §11
Primary hepatocytes: 5.105 fresh hepatocytes were added in the oxigraph chamber containing respiration buffer (KET buffer: KCl 125 mM, EGTA 1 mM, Tris 20 mM) supplemented with 0.1% BSA, 5 mM inorganic phosphate (Pi). The final volume was 1 ml. Oxygen consumption rate was measured before and after the addition of compound 1 (1, 20, 50 or 100 μM) either in resting (state 2) or phosphorylating (state 3) condition.
as §12

[10] = system: Diffuse Large B Cell Lymphoma (SUDHL-4 model) xenograft; assay: CDX xenograft tumor volume, SUDHL-4 model; assay type: in vivo, female SCID mice; conditions: SUDHL-4 xenograft, 50 mg/kg intraperitoneal five times a week, versus DMSO control
Text: as §4, §5, §6, §7

[11] = system: MEF_LKB-/- and MEF_LKB1+/+ cells; assay: WST-1 cell viability test, MEF cells with or without the LKB1 gene; assay type: cell-based, mouse; conditions: MEF_LKB-/- versus MEF_LKB1+/+, 24 hours
Procedure: as §3

SMILES | apoptosis (apoptotic cells/cell decrease) [1] | number of living cells [2] | IC50 compared with IC50 of metformin ([3]; 24 hours incubation) | IC50 ([3]; Rattus norvegicus, INS1, 24 hours incubation) [µM] | tumor growth (tumor volume) [4] | IC50 [5] [µM] | IC50 [6] [µM] | IC50 compared with IC50 of metformin ([7]; all lymphomas, 24 hours incubation, WST-1) | sensitivity of lymphoma cell lines (viability) ([7]; human B and T lymphoma, 24 hours, 1 μM to 200 μM) | mitochondrial oxygen consumption ([8]; permeabilized RL, SUDHL4 and GRANTA cells, state 3, 2 min after addition) | dose inhibiting oxygen consumption, tumoral cells versus fresh hepatocytes ([8]; permeabilized tumoral cells (RL, SUDHL4, GRANTA) compared with permeabilized fresh hepatocytes) | mitochondrial oxygen consumption [9] | tumor growth (tumor volume) [10] | toxicity on cells with or without LKB1 (viability) [11]
N=C(Nc1ccc2ccccc2c1)SCCCCCCSC(=N)Nc1ccc2ccccc2c1 [compound 4] | can induce apoptosis | induces a differential decrease in the number of living cells | – | – | – | – | – | – | – | – | – | – | – | –
N=C(Nc1ccccc1)SCCCCCCSC(=N)Nc1ccccc1 [compound 1] | – | – | far below IC50 of metformin | < 10 | reduces tumor growth | < 10 | < 10 | far below IC50 of metformin | sensible to compound 1 | inhibits mitochondrial oxygen consumption in all cells tested | about 25 times smaller | inhibits mitochondrial oxygen consumption in all cells tested | reduces tumor growth | more toxic for the cells that do not express the LKB1 protein
